Read-outs that look alike come from different tables or passages of the source.
Assays:
Type in all cases: cell-based
[1] = system: A2780 ovarian cancer cell line; test: MTS cell viability assay, growth inhibition, A2780; conditions: A2780 cells
Protocol: (§1) Cytotoxicity was measured in six cell lines: two colorectal carcinoma cell lines (HT29 and HCT-116); two small cell lung cancer cell lines (NCI-H69 and NCI-H69/AR); and two ovarian cancer cell lines (A2780 and A2780/DPPt). Viable cell number was measured using the MTS cell viability assay ([…] 96 AQueous One Solution Cell Proliferation Assay kit available from Promega, US). […] Cisplatin was prepared in saline. […] All tumor lines were propagated under sterile conditions and incubated at 37° C. in HEPA-filtered CO2 tissue culture incubators with 5% CO2 and 95% humidity in colorless RPMI 1640 medium (Mediatech, Herndon, Va.) containing 5% fetal bovine serum (complete medium). The ovarian and colon tumor cell lines were plated in microtiter plates at a density of 5,000 cells per well. The lung lines were plated at a density of 10,000 cells per well. Viable cell number was measured by the MTS dye conversion assay after a total of 72 hours of treatment. […] The plates were incubated for four hours at 37° C. The absorbance was measured at 490 nm on a Coulter microplate reader.

[2] = system: A2780/DDPT ovarian cancer cell line (platinum resistant); test: MTS cell viability assay, growth inhibition, A2780/DDPT
Protocol: as §1

[3] = system: HT29 colorectal carcinoma cell line; test: MTS cell viability assay, growth inhibition, HT29; conditions: HT29 cells, 72 hours of treatment
Protocol: as §1

[4] = system: NCI-H69 small cell lung cancer cell line; test: MTS cell viability assay, growth inhibition, NCI-H69; conditions: NCI-H69 cells, 72 hours of treatment
Protocol: as §1

[5] = system: HCT-116 colorectal carcinoma cell line; test: MTS cell viability assay, growth inhibition, HCT-116; conditions: HCT-116 cells, 72 hours of treatment
Protocol: as §1

[6] = system: NCI-H69/AR small cell lung cancer cell line; test: MTS cell viability assay, growth inhibition, NCI-H69/AR; conditions: NCI-H69/AR cells, 72 hours of treatment
Protocol: as §1

[7] = method of Example 10 (text of Examples 8 and 9), read-out: GI50 for A2780
[8] = A2780 (platinum resistant) cells, method of Example 10 (text of Examples 8 and 9), read-out: GI50 for A2780 (platinum resistant)
[9] = 72 hours of treatment, MTS, read-out: Growth Inhibition (GI50) A2780
[10] = A2780/DDPT cells, 72 hours of treatment, MTS, read-out: Growth Inhibition (GI50) A2780/DDPT

Compound	GI50 [1, 7] [µM]	GI50 [2, 8] [µM]	GI50 [1, 9] [µM]	GI50 [3] [µM]	GI50 [4] [µM]	GI50 [5] [µM]	GI50 [6] [µM]	GI50 [2, 10] [µM]
triethylenetetraamine-N,N,N′,N″,N′″,N′″-hexaacetic-acid-tetraplatinum [TTHA-tetraplatinum]	7	50	–	–	–	–	–	–
N.N.[Cl][Pt][Cl] [Cisplatin, cis-diaminedichloroplatinum (II), reference compound]	15	57	15	61	15	43	15	57
diethylenetriamine-N,N,N′,N″,N″-pentaacetic-acid-triplatinum [DTPA-triplatinum]	19	63	–	–	–	–	–	–
1,3-Diamino-2-hydroxypropane-N,N,N′,N′-tetraacetic-acid-diplatinum [DAPTA-diplatinum]	–	–	20	> 100	27	81	21	> 100
ethylene glycol-bis-(β-aminoethyl)-N,N,N′,N′-tetraacetic-acid-diplatinum [EGTA-diplatinum]	–	–	> 100	–	> 100	> 100	> 100	–
triethylene-tetraamine-N,N,N′,N″,N′″,N′″-hexaacetic-acid-diplatinum [TTHA-diplatinum]	–	–	7.1	53	9.3	23	16	48
diethylenetriamine-N,N,N′,N″,N″-pentaacetic-acid-diplatinum [DTPA-diplatinum]	–	–	19	54	18	41	23	62

— US7268245B2, “Multinuclear platinum compounds” (Sonus Pharmaceuticals, Inc., priority 2004, dated 2007)
